For eleven compounds, IC50 results are on record in patent US20260070945A1, “MACROCYCLIC IMMUNOMODULATORS” (Bristol-Myers Squibb Company, priority 2022, published 2026).

Where a SMILES comes first, the peptide text is derived from it. Bridges are numbered along the chain shown (N, C = ends). [ ]: non-standard residue; d: D form. The star is where a group is joined. ξ: configuration not given here. Phe(3-CF3) = N[C@@H](Cc1cccc(C(F)(F)F)c1)C(=O)O; Phe(4-CF3) = N[C@@H](Cc1ccc(C(F)(F)F)cc1)C(=O)O; Phe(4-COOH) = N[C@@H](Cc1ccc(C(=O)O)cc1)C(=O)O; Bip = N[C@@H](Cc1ccc(-c2ccccc2)cc1)C(=O)O; NH(CH2)14COOH = O=C(O)CCCCCCCCCCCCCCN*; Phe(3-F) = N[C@@H](Cc1cccc(F)c1)C(=O)O; Phe(3-Me) = Cc1cccc(C[C@H](N)C(=O)O)c1; Val(3-OH) = CC(C)(O)[C@H](N)C(=O)O; Cha = N[C@@H](CC1CCCCC1)C(=O)O; Ile(3ξ) = CCC(C)[C@H](N)C(=O)O; Thr(3ξ) = CC(O)[C@H](N)C(=O)O; Carboxymethyl = O=C(O)C*; NMeA = CN[C@@H](C)C(=O)O; Aun = NCCCCCCCCCCC(=O)O; Dab = NCC[C@H](N)C(=O)O; Nva = CCC[C@H](N)C(=O)O; AEEA = NCCOCCOCC(=O)O

T1 sequence (Q15116 25-288): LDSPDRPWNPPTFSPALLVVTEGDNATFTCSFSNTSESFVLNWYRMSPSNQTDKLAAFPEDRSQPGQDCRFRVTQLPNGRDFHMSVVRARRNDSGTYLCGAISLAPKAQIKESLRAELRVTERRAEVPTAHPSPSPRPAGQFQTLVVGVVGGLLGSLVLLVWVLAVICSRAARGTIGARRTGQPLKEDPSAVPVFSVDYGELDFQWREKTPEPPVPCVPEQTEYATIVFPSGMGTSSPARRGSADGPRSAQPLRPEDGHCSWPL

This assay addresses T1, PD-1/PD-L1 interaction (PE-labeled human PD-L1-Ig binding to Jurkat cell line over-expressing human PD-1) (Homo sapiens, UniProt Q15116).
T1 construct: expressed in transfected cells; host or cells: Jurkat
Put plainly: Jurkat-PD-1 Cell Binding High-Content Screening Assay (CBA). The conditions noted are these: PE-labeled PD-L1-Ig 20 nM final, Jurkat-hPD-1 cells; read-out: Jurkat HPD1 PDL1 IC50. In a few lines:
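High-content imaging read-out of PE-PD-L1-Ig binding (20 nM final, 1 h) to Jurkat-hPD-1 cells, after 2 h compound exposure at 37 °C in DMEM with 10% FCS. Nuclei counterstained with Hoechst 33342 after paraformaldehyde fixation.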
On to `CC(C)C[C@H]1NC(=O)[C@H](C)N(C)C(=O)[C@H](Cc2ccc(OCC(=O)O)cc2)NC(=O)[C@H](Cc2ccc(-c3ccccc3)cc2)NC(=O)[C@H](Cc2ccc(C(=O)O)cc2)NC(=O)[C@H](Cc2cccc(C(F)(F)F)c2)NC(=O)[C@H](CC(=O)O)NC(=O)[C@H](Cc2ccc(OCC(=O)O)cc2)NC(=O)[C@H](C(C)O)NC(=O)CSC[C@@H](C(=O)N[C@@H](CCN)C(=O)NCCCCCCCCCCC(=O)O)NC(=O)[C@H](CO)NC(=O)[C@H](C(C)(C)O)NC(=O)[C@H](CC2CCCCC2)NC(=O)[C@H](Cc2cnc[nH]2)NC1=O` (stereo partly drawn) [Example 2575] ({CH2CO}-[Thr(3ξ)]Y(Carboxymethyl)D[Phe(3-CF3)][Phe(4-COOH)][Bip]Y(Carboxymethyl)[NMeA][dL]H[Cha][Val(3-OH)]SC[Dab][Aun]-OH; thioether N-14), for which the IC50 is 29.6 nM.

With `CC(=O)NCCCC[C@@H]1NC(=O)[C@H](C(C)(C)O)NC(=O)[C@H](CC2CCCCC2)NC(=O)[C@H](CCN)NC(=O)[C@@H](CC(C)C)NC(=O)[C@H](C)N(C)C(=O)[C@H](CCC(N)=O)NC(=O)[C@H](Cc2ccc(-c3ccccc3)cc2)NC(=O)[C@H](Cc2ccc(C(=O)O)cc2)NC(=O)[C@H](Cc2cccc(C)c2)NC(=O)[C@H](CC(=O)O)NC(=O)[C@H](Cc2ccc(OCC(=O)O)cc2)NC(=O)[C@H](Cc2ccc(OCC(=O)O)cc2)NC(=O)CSC[C@@H](C(=O)N[C@@H](CCN)C(=O)NCCOCCOCC(=O)NCCCCCCCCCCCCCCC(=O)O)NC1=O` [Example 2576] ({CH2CO}-Y(Carboxymethyl)Y(Carboxymethyl)D[Phe(3-Me)][Phe(4-COOH)][Bip]Q[NMeA][dL][Dab][Cha][Val(3-OH)]K(Ac)C[Dab][AEEA]-{NH(CH2)14COOH}; thioether N-14), the IC50 is 103 nM.

For `CC(=O)NCCCC[C@@H]1NC(=O)[C@H](C(C)(C)O)NC(=O)[C@H](CC2CCCCC2)NC(=O)[C@H](CCN)NC(=O)[C@@H](CC(C)C)NC(=O)[C@H](C)N(C)C(=O)[C@H](CCC(N)=O)NC(=O)[C@H](Cc2ccc(-c3ccccc3)cc2)NC(=O)[C@H](Cc2ccc(C(=O)O)cc2)NC(=O)[C@H](Cc2cccc(C)c2)NC(=O)[C@H](CC(=O)O)NC(=O)[C@H](Cc2ccc(OCC(=O)O)cc2)NC(=O)[C@H](Cc2ccc(OCC(=O)O)cc2)NC(=O)CSC[C@@H](C(=O)N[C@@H](CCN)C(=O)NCCOCCOCC(=O)N[C@@H](CCC(=O)NCCCCCCCCCCCCCCC(=O)O)C(=O)O)NC1=O` [Example 2577] ({CH2CO}-Y(Carboxymethyl)Y(Carboxymethyl)D[Phe(3-Me)][Phe(4-COOH)][Bip]Q[NMeA][dL][Dab][Cha][Val(3-OH)]K(Ac)C[Dab][AEEA]E(NH(CH2)14COOH)-OH; thioether N-14), the IC50 was determined as 46.9 nM.

In the case of `Cc1cccc(C[C@@H]2NC(=O)[C@H](CC(=O)O)NC(=O)[C@H](Cc3ccc(OCC(=O)O)cc3)NC(=O)[C@H](Cc3ccc(C(F)(F)F)cc3)NC(=O)CSC[C@@H](C(=O)N[C@@H](CCN)C(=O)NCCOCCOCC(=O)NCCCCCCCCCCC(=O)O)NC(=O)[C@H](CCC(=O)O)NC(=O)[C@H](C(C)C)NC(=O)[C@H](CC3CCCCC3)NC(=O)[C@H](CCN)NC(=O)[C@@H](CC(C)C)NC(=O)[C@H](C)N(C)C(=O)[C@H](Cc3ccc(C(=O)O)cc3)NC(=O)[C@H](Cc3ccc(-c4ccccc4)cc3)NC(=O)[C@H](Cc3ccc(C(=O)O)cc3)NC2=O)c1` [Example 2578] ({CH2CO}-[Phe(4-CF3)]Y(Carboxymethyl)D[Phe(3-Me)][Phe(4-COOH)][Bip][Phe(4-COOH)][NMeA][dL][Dab][Cha]VEC[Dab][AEEA][Aun]-OH; thioether N-14), the IC50 was 22.2 nM.

Consider `CC(=O)NCCCC[C@@H]1NC(=O)[C@H](C(C)(C)O)NC(=O)[C@H](CC2CCCCC2)NC(=O)[C@H](CCN)NC(=O)[C@@H](CC(C)C)NC(=O)[C@H](C)N(C)C(=O)[C@H](CCC(N)=O)NC(=O)[C@H](Cc2ccc(-c3ccccc3)cc2)NC(=O)[C@H](Cc2ccc(C(=O)O)cc2)NC(=O)[C@H](Cc2cccc(C(F)(F)F)c2)NC(=O)[C@H](CC(=O)O)NC(=O)[C@H](Cc2ccc(OCC(=O)O)cc2)NC(=O)[C@H](Cc2ccc(OCC(=O)O)cc2)NC(=O)CSC[C@@H](C(=O)N[C@@H](CCN)C(=O)NCCOCCOCC(=O)NCCCCCCCCCCC(=O)O)NC1=O` [Example 2579] ({CH2CO}-Y(Carboxymethyl)Y(Carboxymethyl)D[Phe(3-CF3)][Phe(4-COOH)][Bip]Q[NMeA][dL][Dab][Cha][Val(3-OH)]K(Ac)C[Dab][AEEA][Aun]-OH; thioether N-14), for which the IC50 was determined as 2.6 nM.

Turning to `CC(C)C[C@H]1NC(=O)[C@H](C)N(C)C(=O)[C@H](Cc2ccc(OCC(=O)O)cc2)NC(=O)[C@H](Cc2ccc(-c3ccccc3)cc2)NC(=O)[C@H](Cc2ccc(C(=O)O)cc2)NC(=O)[C@H](Cc2cccc(C(F)(F)F)c2)NC(=O)[C@H](CC(=O)O)NC(=O)[C@H](Cc2ccc(OCC(=O)O)cc2)NC(=O)[C@H](Cc2cnc[nH]2)NC(=O)CSC[C@@H](C(=O)N[C@@H](CCN)C(=O)NCCCCCCCCCCC(=O)O)NC(=O)[C@H](C(C)O)NC(=O)[C@H](C(C)C)NC(=O)[C@H](CC2CCCCC2)NC(=O)[C@H](CCN)NC1=O` (stereo partly drawn) [Example 2580] ({CH2CO}-HY(Carboxymethyl)D[Phe(3-CF3)][Phe(4-COOH)][Bip]Y(Carboxymethyl)[NMeA][dL][Dab][Cha]V[Thr(3ξ)]C[Dab][Aun]-OH; thioether N-14), the IC50 was found to be 6.8 nM.

As for `CC(C)C[C@H]1NC(=O)[C@H](C)N(C)C(=O)[C@H](Cc2ccc(OCC(=O)O)cc2)NC(=O)[C@H](Cc2ccc(-c3ccccc3)cc2)NC(=O)[C@H](Cc2ccc(C(=O)O)cc2)NC(=O)[C@H](Cc2cccc(C(F)(F)F)c2)NC(=O)[C@H](CC(=O)O)NC(=O)[C@H](Cc2ccc(OCC(=O)O)cc2)NC(=O)[C@H](Cc2cnc[nH]2)NC(=O)CSC[C@@H](C(=O)N[C@@H](CCN)C(=O)NCCCCCCCCCCC(=O)O)NC(=O)[C@H](CCC(=O)O)NC(=O)[C@H](C(C)C)NC(=O)[C@H](CC2CCCCC2)NC(=O)[C@H](CCN)NC1=O` [Example 2581] ({CH2CO}-HY(Carboxymethyl)D[Phe(3-CF3)][Phe(4-COOH)][Bip]Y(Carboxymethyl)[NMeA][dL][Dab][Cha]VEC[Dab][Aun]-OH; thioether N-14), the IC50 is 9.2 nM.

Consider `Cc1cccc(C[C@@H]2NC(=O)[C@H](CC(=O)O)NC(=O)[C@H](Cc3ccc(C(=O)O)cc3)NC(=O)[C@H](C)NC(=O)CSC[C@@H](C(=O)N[C@@H](CCN)C(=O)NCCCCCCCCCCC(=O)O)NC(=O)[C@H](C(C)O)NC(=O)[C@H](C(C)C)NC(=O)[C@H](CC3CCCCC3)NC(=O)[C@H](CCN)NC(=O)[C@@H](CC(C)C)NC(=O)[C@H](C)N(C)C(=O)[C@H](Cc3ccc(C(=O)O)cc3)NC(=O)[C@H](Cc3ccc(-c4ccccc4)cc3)NC(=O)[C@H](Cc3ccc(C(F)(F)F)cc3)NC2=O)c1` (stereo partly drawn) [Example 2582] ({CH2CO}-A[Phe(4-COOH)]D[Phe(3-Me)][Phe(4-CF3)][Bip][Phe(4-COOH)][NMeA][dL][Dab][Cha]V[Thr(3ξ)]C[Dab][Aun]-OH; thioether N-14), for which the IC50 came out at 21.3 nM.

Consider `CCC[C@@H]1NC(=O)[C@H](C(C)(C)O)NC(=O)[C@H](CC2CCCCC2)NC(=O)[C@H](CCN)NC(=O)[C@@H](CC(C)C)NC(=O)[C@H](C)N(C)C(=O)[C@H](Cc2ccc(C(=O)O)cc2)NC(=O)[C@H](Cc2ccc(-c3ccccc3)cc2)NC(=O)[C@H](Cc2ccc(C(=O)O)cc2)NC(=O)[C@H](Cc2cccc(C)c2)NC(=O)[C@H](CC(=O)O)NC(=O)[C@H](Cc2ccc(C(=O)O)cc2)NC(=O)[C@H](Cc2ccc(C(F)(F)F)cc2)NC(=O)CSC[C@@H](C(=O)N[C@@H](CCN)C(=O)NCCCCCCCCCCC(=O)O)NC1=O` [Example 2583] ({CH2CO}-[Phe(4-CF3)][Phe(4-COOH)]D[Phe(3-Me)][Phe(4-COOH)][Bip][Phe(4-COOH)][NMeA][dL][Dab][Cha][Val(3-OH)][Nva]C[Dab][Aun]-OH; thioether N-14), for which the IC50 was found to be 37.5 nM.

Turning to `CC(C)C[C@H]1NC(=O)[C@H](C)N(C)C(=O)[C@H](Cc2ccc(C(=O)O)cc2)NC(=O)[C@H](Cc2ccc(-c3ccccc3)cc2)NC(=O)[C@H](Cc2ccc(C(=O)O)cc2)NC(=O)[C@H](Cc2cccc(C(F)(F)F)c2)NC(=O)[C@H](CC(=O)O)NC(=O)[C@H](Cc2ccc(C(=O)O)cc2)NC(=O)[C@H](Cc2ccc(OCC(=O)O)cc2)NC(=O)CSC[C@@H](C(=O)N[C@@H](CCN)C(=O)NCCCCCCCCCCC(=O)O)NC(=O)[C@H](CO)NC(=O)[C@H](C(C)(C)O)NC(=O)[C@H](CC2CCCCC2)NC(=O)[C@H](CCN)NC1=O` [Example 2585] ({CH2CO}-Y(Carboxymethyl)[Phe(4-COOH)]D[Phe(3-CF3)][Phe(4-COOH)][Bip][Phe(4-COOH)][NMeA][dL][Dab][Cha][Val(3-OH)]SC[Dab][Aun]-OH; thioether N-14), the IC50 came out at 2.5 nM.

`CCC(C)[C@@H]1NC(=O)[C@H](Cc2ccc(-c3ccccc3)cc2)NC(=O)[C@H](Cc2ccc(C(F)(F)F)cc2)NC(=O)[C@H](Cc2cccc(F)c2)NC(=O)[C@H](CC(=O)O)NC(=O)[C@H](Cc2ccc(C(=O)O)cc2)NC(=O)[C@H](Cc2cnc[nH]2)NC(=O)CSC[C@@H](C(=O)N[C@@H](CCN)C(=O)NCCCCCCCCCCC(=O)O)NC(=O)[C@H](CO)NC(=O)[C@H](C(C)(C)O)NC(=O)[C@H](CC2CCCCC2)NC(=O)[C@H](CCN)NC(=O)[C@@H](CC(C)C)NC(=O)[C@H](C)N(C)C1=O` (stereo partly drawn) [Example 2586] ({CH2CO}-H[Phe(4-COOH)]D[Phe(3-F)][Phe(4-CF3)][Bip][Ile(3ξ)][NMeA][dL][Dab][Cha][Val(3-OH)]SC[Dab][Aun]-OH; thioether N-14): the IC50 was found to be 14.1 nM.

As usually defined, the IC50 is the concentration that gives 50% inhibition.
